The source of these data is US11959100B2, “Method for culture of cells” (Kyoto University, priority 2017, dated 2024).

In assay [1] the test system is neural crest cells (NCCs). Description: Expansion (suspension) culture of neural crest cells: percentage of SOX10 expression-positive cells by flow cytometry. It is filed as cell-based, Human. Conditions: for influence of concentration on change in the percentage of SOX10 expression-positive cells: bFGF and EGF 20 or 40 ng/ml. The source says: (§1) Human iPSCs were allowed to differentiate into neural crest cells (NCCs) according to the method described in Non Patent Literature 1. The iPSCs used were SOX10-Nano-Lantern Reporter Human iPSCs (201B7 line) described in Non Patent Literature 4. This cell line has an insert of a nucleotide sequence encoding a fluorescent protein Nano-Lantern (Saito K. et al., “Luminescent proteins for high-speed single-cell and whole-body imaging.” Nat. Commun., 2012; 3: 1262) downstream of SOX10 gene, a marker gene of NCCs, and expresses a fusion protein of SOX10 and Nano-Lantern under the control of SOX10 promoter.
(§2) iPSCs were inoculated to a Matrigel-coated dish, adherent-cultured for 4 days in TeSR1 medium, and then adherent-cultured for 10 days in CDM medium containing 10 μM SB431542 (TGFβ inhibitor) and 1 μM CHIR99021 (GSK3β inhibitor), and thereby allowed to differentiate into NCCs.
[…] The cells were passaged every 7 days.
(§3) Change in total cell number after the start of expansion culture is shown in FIG. 1, and change in the percentage of SOX10 expression-positive cells is shown in FIG. 2. In order to measure the percentage of SOX10 expression-positive cells, an aggregated cell mass was dissociated using StemPro Accutase Cell Dissociation Reagent (Invitrogen Corp.) to prepare single-cell suspensions. The single-cell suspensions in FACS buffer (2% BSA HBSS) supplemented with 1 μg/mL PI (propidium iodide, Wako Pure Chemical Industries, Ltd.) were filtered through a tube with 35 μm nylon mesh (BD Falcon) and then analyzed using a flow cytometer (FACS Aria, BD Biosciences) to measure the ratio of GFP-positive cells in live cells (PI-negative cells). […] The expressed SOX10 serves as a marker of NCCs having multipotency.
(In general: Flow cytometry measures light scatter and fluorescence of single cells or particles in a stream.)

Assay [2] has as its system neural crest cells (NCCs). Nature of the assay: Expansion (suspension) culture of neural crest cells: total cell number / rate of cell proliferation. Format: cell-based, Human. Conditions: for influence of concentration on change in total cell number: bFGF and EGF 20 or 40 ng/ml, CHIR99021 1, 2, 3, 3.5, 4, 4.5 or 5 μM.
Source text: as §1, §2
NCCs were detached from the dish and suspension-cultured in CDM medium containing 10 μM SB431542, 3 μM CHIR99021, 40 ng/ml bFGF and 40 ng/ml EGF. The cells were passaged every 7 days.
as §3

The test system of assay [3] is neural crest cells. Conditions: bFGF 0 pg/ml to 10 ng/ml; adherent culture; cited from earlier work.
For assay [4], the system named is neural crest cells. The conditions noted are these: 1 μM CHIR99021; culture for 7 days; suspension culture; cited from earlier work.
The target in the next assay is GSK3β (Homo sapiens, UniProt P49841). Description: GSK3β inhibitory activity, CellSensor LEF/TCF-bla HCT-116 reporter assay. It is filed as cell-based. The source says:
In the Wnt/β-catenin pathway, GSK3β functions to phosphorylate β-catenin in the absence of Wnt-ligand. The phosphorylated β-catenin is ubiquitinated and degraded within the proteasome. Therefore, gene expression downstream of the Wnt-β-catenin pathway is suppressed. If GSK3β in this pathway is inhibited, β-catenin is translocated into the nucleus, without being degraded, to induce gene expression downstream of the Wnt-β-catenin pathway together with other transcription factors such as T-cell factor (TCF)/lymphoid enhancer factor (LEF). CellSensor LEF/TCF-bla HCT-116 Cell Line (Thermo Fisher Scientific Inc., K1676) stably incorporates therein LEF/TCF and incorporates a reporter gene (beta-lactamase reporter gene) so as to express the reporter gene under the control of LEF/TCF. The expression of the reporter gene in this cell line in the absence of the Wnt-ligand serves as an index for the inhibition of the function (β-catenin phosphorylation function) of GSK3β. The GSK3β inhibitory activity of the GSK3β inhibitor was measured by assay using this cell line.
The assay was conducted in accordance with the protocol of Invitrogen Corp. (CellSensor® LEF/TCF-bla HCT 116 Cell-based Assay Protocol).
Specifically, LEF/TCF-bla HCT-116 Cells were suspended in an assay medium (OPTI-MEM, 0.5% dialyzed FBS, 0.1 mM NEAA, 1 mM sodium pyruvate, 100 U/mL/100 μg/mL Pen/Strep) (312,500 cells/mL). The cell suspension was inoculated to each well of an assay plate (10,000 cells/well), and cultured for 16 to 24 hours.
A beta-lactamase substrate solution (LiveBLAzer-FRET B/G (CCF4-AM) Substrate Mixture) was added to each well (8 μL/well) and incubated for 2 hours. A fluorescence value was measured in a fluorescence plate reader. The measurement was performed in two wells per each concentration condition.
On the technique in general: A reporter such as luciferase makes a cellular process visible.

Where [5] appears, read: bFGF 10, 12.5, 15.0 or 17.5 ng/ml, CHIR99021 1.5 μM.

Sequence of GSK3β (P49841 whole entry): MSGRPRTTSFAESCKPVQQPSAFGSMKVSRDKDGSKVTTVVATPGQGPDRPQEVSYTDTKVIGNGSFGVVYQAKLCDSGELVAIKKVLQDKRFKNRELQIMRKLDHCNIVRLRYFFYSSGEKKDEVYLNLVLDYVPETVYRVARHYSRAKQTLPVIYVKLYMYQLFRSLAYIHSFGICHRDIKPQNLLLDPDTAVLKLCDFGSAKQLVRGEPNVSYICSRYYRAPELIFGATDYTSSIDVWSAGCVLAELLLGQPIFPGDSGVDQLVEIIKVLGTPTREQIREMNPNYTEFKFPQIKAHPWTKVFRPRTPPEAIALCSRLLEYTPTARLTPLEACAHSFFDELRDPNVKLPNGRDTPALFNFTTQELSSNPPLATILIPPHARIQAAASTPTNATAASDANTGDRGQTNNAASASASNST

For the compound `Cn1cc(C2=C(c3cccc(N)c3)C(=O)NC2=O)c2ccccc21` [CP21R7, 3-(3-amino-phenyl)-4-(1-methyl-1H-indol-3-yl)-pyrrole-2,5-dione], the “time of culture at which the number of cells that maintained multipotency decreased” value in assay [1] (CP21R7 0.1 μM) is listed as 21 days. The “percentage of SOX10 expression-positive cells” value in assay [1] (CP21R7 0.1 μM, on 21 days of culture) is recorded as “started to decrease”; in assay [1] (CP21R7 0.5 or 1 μM, on 84 days of culture), “high percentage of SOX10 expression-positive cells was confirmed”. Also, the “period of culture and proliferation of neural crest cells that maintained multipotency” value in assay [1] (CP21R7 0.5 to 1 μM) is no less than 84 days.

In the case of “EGF: epidermal growth factor, medium additive”, in assay [2], the “influence of concentration on change in total cell number” value is on record as “no influence”. In addition, the “influence of concentration on change in the percentage of SOX10 expression-positive cells” value in assay [1] was “no influence”.

For “bFGF: basic fibroblast growth factor (bFGF (also referred to as FGF2)), medium additive”, the “number and ratio of neural crest cells in a cultured cell population” value in the assay with neural crest cells [3] is “decreased in a concentration-dependent manner”. Also, in assay [2] (setting [5]), the “behavior of change in total cell number” value is listed as “substantially the same”. For the same compound, in assay [2], the “influence of concentration on change in total cell number” value is listed as “no influence”. In addition, the “influence of bFGF concentration on the percentage of SOX10 expression positivity” value in assay [1] (setting [5]) is “no influence”. The “influence of concentration on change in the percentage of SOX10 expression-positive cells” value in assay [1] is “no influence”.

On to `Cc1c[nH]c(-c2cnc(NCCNc3ccc(C#N)cn3)nc2-c2ccc(Cl)cc2Cl)n1` [CHIR99021, 6-[[2-[[4-(2,4-dichlorophenyl)-5-(4-methyl-1H-imidazol-2-yl)-2-pyrimidinyl]amino]ethyl]amino]nicotinonitrile], for which the “presence of Sox10-positive cells” value in the assay with neural crest cells [4] is listed as “presence of Sox10-positive cells was confirmed”. The “Fluorescence value Well 1” value was determined as 6 on GSK3β (0.316 nM); 0 on GSK3β (1.00 nM); 0 at GSK3β (3.16 nM); 12 at GSK3β (10.0 nM); 21 at GSK3β (31.6 nM); 75 at GSK3β (100 nM). Besides, the “Fluorescence value Well 1” value at GSK3β (316 nM) was 101; at GSK3β (1000 nM), 114; on GSK3β (3160 nM) it was 99; on GSK3β (10000 nM) it was 88. For the same compound, the “Fluorescence value Well 2” value came to 0 at GSK3β (0.316 nM); 0 at GSK3β (1.00 nM); 14 at GSK3β (3.16 nM); 23 at GSK3β (10.0 nM); 45 on GSK3β (31.6 nM); 60 at GSK3β (100 nM). In addition, the “Fluorescence value Well 2” value on GSK3β (316 nM) came to 96; on GSK3β (1000 nM) it was 113; at GSK3β (3160 nM), 136; on GSK3β (10000 nM), 73. Also, at GSK3β (1 μM), the “GSK3β inhibitory activity in terms of the fluorescence value (mean from the two wells)” value was found to be 113.5. In addition, the “change in total cell number after the start of expansion culture” value in assay [2] (3 μM CHIR99021, 10 μM SB431542, 40 ng/ml bFGF, 40 ng/ml EGF, whole culture period) is “increased over the whole period”. Further, in assay [2], the “influence of concentration on change in total cell number” value is “no influence”. Moreover, the “percentage of SOX10 expression-positive cells” value in assay [1] (3 μM CHIR99021, 10 μM SB431542, 40 ng/ml bFGF, 40 ng/ml EGF, on 121 days of culture) is given as “high percentage of SOX10 expression-positive cells was confirmed”; in assay [1] (CHIR99021 1 μM, on 21 days of culture) it was “decrease in the percentage of SOX10 expression-positive cells was observed”; in assay [1] (CHIR99021 1 μM, on 63 days of culture), no more than 25%; in assay [1] (CHIR99021 2 μM, on 63 days of culture) it was no less than 55%; in assay [1] (CHIR99021 5 μM, on 63 days of culture), no more than 5%; in assay [1] (CHIR99021 5 μM, up to 42 days of culture), no less than 55%. Further, the “percentage of SOX10 expression-positive cells” value in assay [1] (CHIR99021 3 to 4.5 μM, on 121 days of culture) is no less than 90%. Also, the entries for the “time of culture at which the number of cells that maintained multipotency decreased” value in assay [1] (CHIR99021 1 μM) and in assay [1] (CHIR99021 5 μM) were 21 days and 42 days, respectively. For the same compound, the “period over which multipotency was maintained” value in assay [1] (CHIR99021 2 μM) is given as no less than 63 days. In assay [1] (CHIR99021 3 to 4.5 μM), the “period of culture and proliferation of neural crest cells that maintained multipotency” value is reported as no less than 112 days.
